Key:
autologous EBV-B cells = experiment: 51Cr release lysis of peptide-incubated autologous EBV-B cells by CTL clone; format: cell-based, human; conditions: effector:target 10:1, chromium release after 4 hours; for lysis (chromium release): 1 μg/ml of peptide, 15 minutes
Experimental: A set of 16 amino acid long, MAGE-1 derived peptides were prepared, using standard solid phase methodologies.
The peptides, which overlapped by 12 residues and covered the entire MAGE-1 amino acid sequence, were incubated with autologous EBV-B cells that had been labelled with Na(^51Cr)O4. The cells were incubated for 15 minutes in the presence of 1 μg/ml of peptide, and then tested for lysis with the T cells, at effector:target ratios of 10:1. Chromium release was measured after 4 hours.
It corresponds to amino acids 230-238 of MAGE-1. The shorter peptide was tested, in the same manner as the longer ones.

EBV-B cells = experiment: TNF production by CTL co-cultured with fixed EBV-B cells pulsed with the shorter peptide; format: cell-based, human; conditions: PFA-fixed EBV-B cells pulsed with peptide; overnight co-culture with 5,000 CTLs; WEHI 164 clone 13 readout
Experimental: A MAGE-1 expressing tumor cell line, MZ2-MEL.43 was obtained from a patient who tested positive for HLA-Cw6 expression. These cells either were, or were not contacted with gamma interferon (100 U/ml), 48 hours before lysis studies. EBV-B cells were also used. These cells naturally produce TNF. They were fixed with PFA (1% in PBS) for 10 minutes at room temperature, washed twice with Hank's medium, and either pulsed or not with the shorter peptide.
Stimulator cells (2×10^4) were distributed in flat bottom microwells, and cocultured with 5,000 CTLs, in a total volume of 150 μl of complete IMDM, supplemented with 25 U/ml of IL-2.
TNF production was measured, following overnight co-culture, by testing for toxicity of supernatant on TNF sensitive, WEHI 164 clone 13 cells.

Sequence | lysis (chromium release) (autologous EBV-B cells) | EC50 (autologous EBV-B cells; read-out: peptide concentration giving half maximal lysis) [nM] | TNF production by CTL (EBV-B cells)
HSAYGEPRKLLTQDLV (H. sapiens) [SEQ ID NO:2, amino acids 229-244 of MAGE-1] | positive | – | –
SAYGEPRKL | – | ~6 | did stimulate TNF production
DGREHSAYGEPRKLLT (H. sapiens) [SEQ ID NO:1, amino acids 225-240 of MAGE-1] | positive | – | –

Source: patent publication US20030228308A1, “Isolated peptides which bind to HLA-Cw6 molecules and uses thereof” (priority 2002, published 2003)
